# Measured values published in PubChem BioAssay AID258 (DTP/NCI, 2004).
# Where “and” joins values, the source holds several entries; their conditions need not be identical. Identical values can stand only once. Toxic doses and inconclusive results are not listed.
# System: CD2F1 mice, L1210 leukemia sc, survival T/C
# Assay: NCI In Vivo Anticancer Drug Screen. Data for tumor model L1210 Leukemia (subcutaneous) in CD2F1 (CDF1) mice
# Conditions: endpoint: median survival time, higher = longer survival
# Method in brief: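 Mice with transplanted tumor dosed; survival/tumor size read; T/C vs vehicle controls.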
# [1] = dose: 9.6 mg/kg/injection, schedule: Q01DX009 (ip), vehicle: saline
smiles,measurement,setting,value
CC(=O)Oc1ccc[nH]c1=O,T/C,"dose: 16.7 mg/kg/injection, schedule: Q03HX027 (ip), vehicle: saline with Tween-80",107 % of control
same,T/C,"dose: 33.0 mg/kg/injection, schedule: Q03HX027 (ip), vehicle: saline with Tween-80",104 % of control
same,T/C,"dose: 50.0 mg/kg/injection, schedule: Q01DX009 (ip), vehicle: saline with Tween-80",98 % of control
same,T/C,"dose: 66.7 mg/kg/injection, schedule: Q03HX027 (ip), vehicle: saline with Tween-80",96 % of control
same,T/C,"dose: 100.0 mg/kg/injection, schedule: Q01DX009 (ip), vehicle: saline with Tween-80",98 % of control
same,T/C,"dose: 133.0 mg/kg/injection, schedule: Q03HX027 (ip), vehicle: saline with Tween-80",105 % of control
same,T/C,"dose: 200.0 mg/kg/injection, schedule: Q01DX009 (ip), vehicle: saline with Tween-80",98 % of control
same,T/C,"dose: 266.0 mg/kg/injection, schedule: Q03HX027 (ip), vehicle: saline with Tween-80",108 % of control
same,T/C,"dose: 800.0 mg/kg/injection, schedule: Q01DX009 (ip), vehicle: saline with Tween-80",117 % of control
NCCCN=c1ccc2c3c1c(O)c1c(O)ccc(=O)c1c3[nH]n2CCNCCO,T/C,"dose: 0.8 mg/kg/injection, schedule: Q03HX024 (ip), vehicle: saline",118 % of control
same,T/C,"dose: 2.2 mg/kg/injection, schedule: Q03HX024 (ip), vehicle: saline",161 % of control
same,T/C,"dose: 2.34 mg/kg/injection, schedule: Q03HX008 (ip), vehicle: saline",124 % of control
same,T/C,"dose: 3.46 mg/kg/injection, schedule: Q01DX009 (ip), vehicle: water",114 % of control
same,T/C,"dose: 3.6 mg/kg/injection, schedule: Q03HX024 (ip), vehicle: saline",212 % of control
same,T/C,"dose: 3.7 mg/kg/injection, schedule: Q01DX005 (ip), vehicle: saline",121 % of control
same,T/C,"dose: 3.7 mg/kg/injection, schedule: Q04DX003 (ip), vehicle: saline",115 % of control
same,T/C,"dose: 5.7 mg/kg/injection, schedule: Q01DX009 (ip), vehicle: water",121 % of control
same,T/C,"dose: 6.2 mg/kg/injection, schedule: Q04DX003 (ip), vehicle: saline",110 % of control
same,T/C,"dose: 6.4 mg/kg/injection, schedule: Q03HX008 (ip), vehicle: saline",175 % of control
same,T/C,[1],207 % of control
same,T/C,"dose: 10.4 mg/kg/injection, schedule: Q01DX005 (ip), vehicle: saline",182 % of control
same,T/C,"dose: 10.4 mg/kg/injection, schedule: Q03HX008 (ip), vehicle: saline",86 % of control
same,T/C,"dose: 11.2 mg/kg/injection, schedule: Q01DX001 (ip), vehicle: saline",120 % of control
same,T/C,"dose: 16.0 mg/kg/injection, schedule: Q01DX009 (ip), vehicle: saline",121 % of control
same,T/C,"dose: 16.0 mg/kg/injection, schedule: Q01DX009 (ip), vehicle: water",208 % of control
same,T/C,"dose: 17.3 mg/kg/injection, schedule: Q01DX005 (ip), vehicle: saline",215 % of control
same,T/C,"dose: 17.3 mg/kg/injection, schedule: Q04DX003 (ip), vehicle: saline",153 % of control
same,T/C,"dose: 18.7 mg/kg/injection, schedule: Q01DX001 (ip), vehicle: saline",119 % of control
same,T/C,"dose: 26.7 mg/kg/injection, schedule: Q01DX009 (ip), vehicle: saline",95 % of control
same,T/C,"dose: 26.7 mg/kg/injection, schedule: Q01DX009 (ip), vehicle: water",96 % of control
same,T/C,"dose: 28.8 mg/kg/injection, schedule: Q01DX005 (ip), vehicle: saline",107 % of control
same,T/C,"dose: 28.8 mg/kg/injection, schedule: Q04DX003 (ip), vehicle: saline",182 % of control
same,T/C,"dose: 48.0 mg/kg/injection, schedule: Q04DX003 (ip), vehicle: saline",268 % of control
same,T/C,"dose: 51.3 mg/kg/injection, schedule: Q01DX001 (ip), vehicle: saline",153 % of control
same,T/C,"dose: 80.0 mg/kg/injection, schedule: Q04DX003 (ip), vehicle: saline",118 % of control
same,T/C,"dose: 86.4 mg/kg/injection, schedule: Q01DX001 (ip), vehicle: saline",225 % of control
Nc1ncn(C2OC(CO)C(O)C2O)c(=O)n1 (stereo not given),T/C,"dose: 0.2 mg/kg/injection, schedule: Q01DX009 (ip), vehicle: saline",97 % of control
same,T/C,"dose: 0.2 mg/kg/injection, schedule: Q01DX009 (sc), vehicle: saline",102 % of control
same,T/C,"dose: 0.4 mg/kg/injection, schedule: Q01DX009 (ip), vehicle: saline",113 % of control
same,T/C,"dose: 0.4 mg/kg/injection, schedule: Q01DX009 (sc), vehicle: saline",115 % of control and 119 % of control
same,T/C,"dose: 0.8 mg/kg/injection, schedule: Q01DX009 (sc), vehicle: saline",120 % of control
same,T/C,"dose: 1.07 mg/kg/injection, schedule: Q01DX009 (sc), vehicle: saline",158 % of control
same,T/C,"dose: 1.6 mg/kg/injection, schedule: Q01DX009 (ip), vehicle: saline",150 % of control
same,T/C,"dose: 2.1 mg/kg/injection, schedule: Q01DX009 (ip), vehicle: saline",178 % of control
same,T/C,"dose: 2.1 mg/kg/injection, schedule: Q01DX009 (sc), vehicle: saline",187 % of control
same,T/C,"dose: 7.2 mg/kg/injection, schedule: Q01DX009 (ip), vehicle: saline",206 % of control and 88 % of control
same,T/C,[1],113 % of control
same,T/C,"dose: 28.8 mg/kg/injection, schedule: Q01DX009 (sc), vehicle: saline",106 % of control
CC1CN1CCS(=O)(=O)CCN1CC1C (stereo not given),T/C,"dose: 0.17 mg/kg/injection, schedule: Q01DX Z (sc), vehicle: other",100 % of control
same,T/C,"dose: 2.16 mg/kg/injection, schedule: Q01DX Z (sc), vehicle: other",100 % of control
same,T/C,"dose: 3.6 mg/kg/injection, schedule: Q01DX Z (sc), vehicle: other",122 % of control
same,T/C,"dose: 6.0 mg/kg/injection, schedule: Q01DX Z (sc), vehicle: other",122 % of control
ONc1nc(NO)c2[nH]cnc2n1,T/C,"dose: 8.0 mg/kg/injection, schedule: Q01DX Z (sc), vehicle: steriod suspending solution",100 % of control
same,T/C,"dose: 32.0 mg/kg/injection, schedule: Q01DX Z (sc), vehicle: steriod suspending solution",175 % of control
same,T/C,"dose: 64.0 mg/kg/injection, schedule: Q01DX Z (sc), vehicle: steriod suspending solution",200 % of control
N#Cc1c(-c2ccc(F)cc2)c(-c2ccc(F)cc2)nn(CCO)c1=O,T/C,"dose: 108.0 mg/kg/injection, schedule: Q01DX005 (ip), vehicle: distilled water + Tween-80 + alcohol",109 % of control
same,T/C,"dose: 180.0 mg/kg/injection, schedule: Q01DX005 (ip), vehicle: distilled water + Tween-80 + alcohol",113 % of control
same,T/C,"dose: 300.0 mg/kg/injection, schedule: Q01DX005 (ip), vehicle: distilled water + Tween-80 + alcohol",113 % of control
same,T/C,"dose: 833.0 mg/kg/injection, schedule: Q01DX005 (ip), vehicle: distilled water + Tween-80 + alcohol",178 % of control
O=C(Nc1cccc(C2=NCCN2)c1)c1ccc(-c2ccc(C(=O)Nc3cccc(C4=NCCN4)c3)cc2)cc1,T/C,"dose: 23.0 mg/kg/injection, schedule: Q01DX Z (sc), vehicle: water",110 % of control
same,T/C,"dose: 39.0 mg/kg/injection, schedule: Q01DX Z (sc), vehicle: water",105 % of control
same,T/C,"dose: 65.0 mg/kg/injection, schedule: Q01DX Z (sc), vehicle: water",100 % of control
same,T/C,"dose: 108.0 mg/kg/injection, schedule: Q01DX Z (sc), vehicle: water",105 % of control
same,T/C,"dose: 180.0 mg/kg/injection, schedule: Q01DX Z (sc), vehicle: water",100 % of control
OCC1OC(n2cnc3c(=S)nc[nH]c32)C(O)C1O (stereo not given),T/C,"dose: 130.0 mg/kg/injection, schedule: Q01DX Z (sc), vehicle: other",177 % of control
same,T/C,"dose: 216.0 mg/kg/injection, schedule: Q01DX Z (sc), vehicle: other",183 % of control
same,T/C,"dose: 360.0 mg/kg/injection, schedule: Q01DX Z (sc), vehicle: other",177 % of control
COC(=O)C1(F)C(=O)NC(=O)NC1OC (stereo not given),T/C,"dose: 50.0 mg/kg/injection, schedule: Q01DX009 (ip), vehicle: Klucel (hydroxypropylcellulose) (HPC)",110 % of control
same,T/C,"dose: 100.0 mg/kg/injection, schedule: Q01DX009 (ip), vehicle: Klucel (hydroxypropylcellulose) (HPC)",120 % of control
same,T/C,"dose: 120.0 mg/kg/injection, schedule: Q01DX009 (ip), vehicle: Klucel (hydroxypropylcellulose) (HPC)",163 % of control
same,T/C,"dose: 200.0 mg/kg/injection, schedule: Q01DX009 (ip), vehicle: Klucel (hydroxypropylcellulose) (HPC)",159 % of control
same,T/C,"dose: 333.33 mg/kg/injection, schedule: Q01DX009 (ip), vehicle: Klucel (hydroxypropylcellulose) (HPC)",120 % of control
same,T/C,"dose: 400.0 mg/kg/injection, schedule: Q01DX009 (ip), vehicle: Klucel (hydroxypropylcellulose) (HPC)",105 % of control
same,T/C,"dose: 555.56 mg/kg/injection, schedule: Q01DX009 (ip), vehicle: Klucel (hydroxypropylcellulose) (HPC)",110 % of control
same,T/C,"dose: 800.0 mg/kg/injection, schedule: Q01DX009 (ip), vehicle: Klucel (hydroxypropylcellulose) (HPC)",98 % of control
